Results on four molecules are retold here after patent US10668032B2 (SyneuRx International (Taiwan) Corp., priority 2016, dated 2020).

SMILES strings stand for the structures.

The subject of experiment [1] is primary cortical neurons. Put plainly: 3-NP induced toxicity in primary cortical culture (Hoechst staining, MAP-2 immunocytochemistry). In kind it is cell-based, rat. Conditions: exposure to 3-NP alone (2.5 mM, 24 h); untreated 0.1. As to the method:
Primary cortical cultures were prepared from embryonic day 18 (E18) fetal Sprague Dawley (SD) rat brains. The cells were maintained in Neurobasal medium supplemented with B27 (GIBCO/Life Technologies of Thermo Fisher Scientific Corporation) at 37° C. for 7 days to allow growth of dendrites before experimentation.
3-NP (Cat. No. 73803, Sigma, St. Louis, Mo., USA) was dissolved in phosphate-buffered saline (PBS) as a stock solution of 1 M and adjusted to pH 7.4 with 10 M sodium hydroxide. The 3-NP stock solution was then dispensed into 1-ml aliquots, protected from light, and stored at −20° C. until use.
Hoechst staining is used to assess the extent of the cell survival. Cells were fixed in 4% paraformaldehyde (PFA) in phosphate-buffered saline (PBS), incubated with the Hoechst 33342 diluted in PBS (1:1000) for 5-15 minutes. The Hoechst staining is used to assess the extent of the cell survival after the exposure to 2.5 mM 3-NP for 24 hours.
Cells were fixed in 4% PFA and washed in PBS, blocked with 2% bovine serum albumin (BSA) and treated by 0.03% Triton X-100 in PBS, before being incubated with mouse monoclonal antibody against microtubule-associated protein-2 (MAP-2) in 1:150 dilution (Cat. No. MAB378, CHEMICON International, Inc., Temecula, Calif., USA). The goat anti-mouse IgG Alexa fluor-conjugated secondary antibodies (Cat No. A11003, Thermo Scientific) in 1:500 dilution were applied to recognize the primary antibodies of the MAP-2. For confocal microscopy, the coverslips were observed under a laser-scanning confocal microscope (Zeiss LSM700; Oberkochen, Germany) equipped with filter sets to detect the corresponding fluorescent signals.
The cells were then exposed to 2.5 mM 3-NP for 24 hours.
Quantitative analysis was also performed to assess the extents of cell death. At least three vision fields were randomly selected and the averaged numbers of dead cells and all nuclei per vision field on each coverslip were calculated.

Experiment [2] relates to primary cortical neuronal culture. Put plainly: Detection of cellular reactive oxygen species (CellROX) after 3-NP in primary cortical culture. In kind it is cell-based, rat. The conditions noted are these: for ROS production induced by 3-NP: 0.5 mM, incubated 24 hours before 3-NP. As to the method:
Reactive oxygen species (ROS) are detected on primary cortical neuronal culture by CellROX Oxidative Reagents (catalog number 10444, Life Technologies Corp. USA). […] The cells were then exposed to 2.5 mM 3-NP for 24 hours. Subsequently, […] CellROX Reagent was added, and then incubated for […]. CellROX Green Reagent is a DNA dye, and upon oxidation, it binds to DNA; thus, its signal is localized in the nucleus and mitochondria. ROS were quantified by fluorescence intensity. The samples were observed under a laser scanning confocal microscope Zeiss LSM700 (Zeiss, Germany) equipped with filter sets to detect fluorescent signal.

A further experiment relates to SH-SY5Y cells. The experiment can be described thus: MPTP toxicity in SH-SY5Y cells, MTT assay. In kind it is cell-based, human. Conditions: MPTP 750 μM, 24 hrs. As to the method:
SH-SY5Y, the human neuroblastoma cell line, was incubated with MPTP (750 μM) for 24 hrs.

A further experiment relates to cortical neurons. Put plainly: Mitochondrial respiration, XF Cell Mito Stress Test (OCR). It counts as cell-based, rat. Conditions: 3 mM, pre-treatment 24 h. How it is done:
The preparation of primary cortical culture was as described before, but the cells were seeded on XF 96 well cell culture microplates. On the day of assay, culture media were changed to XF Assay medium (Seahorse Biosciences, USA). Prior to assay, plates were transferred into an incubator with CO2 supplementation at 37° C. and kept for 1 hour. The overall OCR was calculated.
The XF Cell Mito Stress Test modulates respiration that target components of the electron transport chain (ETC) in the mitochondria to reveal key parameters of metabolic function. The modulators (oligomycin, FCCP, and a mix of rotenone and antimycin A) are serially injected to measure ATP production, maximal respiration, and non-mitochondrial respiration. Proton leak and spare respiratory capacity are then calculated using these parameters.

Experiment [3] relates to GFAP positive cells in cortical culture. Put plainly: GFAP immunocytochemistry in cortical culture after Aβ25-35. The conditions noted are these: post-treatment 1 mM. It counts as cell-based, rat. As to the method:
Cells were fixed in 4% PFA and washed in PBS, blocked with 2% bovine serum albumin (BSA) and 0.03% Triton X-100 in PBS, and then incubated with mouse monoclonal antibody against microtubule-associated protein-2 (MAP-2) (Cat. No. MAB378, 1:150, CHEMICON International, Inc., Temecula, Calif., USA); rabbit polyclonal antibody against GFAP (Cat. No. Z0334, 1:600, DakoCytomation Denmark A/S, Denmark). The goat anti-mouse IgG Alexa Fluor-conjugated secondary antibodies (1:500; Cat No. A11003, Thermo Scientific); anti-rabbit IgG Alexa Fluor-conjugated secondary antibodies (1:500; Thermo Scientific) were applied respectively to recognize the primary antibodies of the MAP-2 and GFAP.
The coverslips were observed under a digital imaging fluorescence microscope (Olympus BX61; Japan) equipped with filter sets to detect the corresponding fluorescence signals.
Glial fibrillary acidic protein (GFAP) is an intermediate filament protein expressed by cells in the CNS, and is also recognized as an astrocyte maturation marker. Upregulation of GFAP, indicating gliosis, is commonly observed after CNS lesion; therefore, expression of GFAP could be useful to understand the state of neurological diseases.

The test system of experiment [4] is primary cortical neurons. The experiment can be described thus: Aβ25-35 cytotoxicity in primary cortical culture, cell survival (MTT). Conditions: 10 μM Aβ 25-35 for 2 days, then drug 1 mM for 4 days; vs no drug treatment.
Method: MTT assay was used to assess the extents of cell survival. MTT (3-(4,5-dimethylthiazol-2-yl)-2,5-diphenyltetrazolium bromide) was added to the culture, incubated at 37° C. for 4 hours. Insoluble purple formazan products were yield by living cells. The colorimetric method was used to quantify the surviving cells, and “cell survival (%)” was defined as the mean numbers of surviving cells.
Primary cortical cultures were prepared as previous described. Aβ25-35 (Cat. No. A4559, Sigma) was dissolved in autoclaved ddH2O to make a stock solution of 2 mM, dispensed into aliquots, and immediately stored at −80° C. until use.
Experiment [5] deals with cortical cells with Aβ25-35 exposure. The experiment can be described thus: Aβ25-35 cytotoxicity with or without NMDA receptor antagonist MK801, cell survival.
Method: Aβ25-35 (Cat. No. A4559, Sigma) was dissolved in autoclaved ddH2O to make a stock solution of 2 mM, dispensed into aliquots, and immediately stored at −80° C. until use.
In this study, the application of MK801 could reveal whether the neuroprotective effects of drugs were mediated by NMDA receptor.

Regarding `O=C(O)CC[N+](=O)[O-]` [3-NP, 3-Nitropropionic acid, reference compound], the “death index (ratio of dead cells to survived cells)” value in the experiment with primary cortical neurons [1] was found to be 0.4. In addition, the “increase of ROS production” value in experiment [2] (3-NP alone) is on record as “more than 50%”.
On to `CN1CC=C(c2ccccc2)CC1` [MPTP, 1-methyl-4-phenyl-1,2,3,6-tetrahydropyridine, reference compound], for which the cell number reduction result in the experiment with SH-SY5Y cells is “about 50%”.
As for `[Cl-].[Li+]` [lithium chloride, reference compound], in the experiment with cortical neurons, the spare respiratory capacity result was “less effective than LiBen”. In addition, the “number of GFAP positive cells after Aβ25-35 exposure” value in experiment [3] is “significantly reduced”. Besides, in the experiment on primary cortical neurons [4], the “cortical cell survival after Aβ25-35” value is “statistical improvement”. The “ROS production induced by 3-NP” value in experiment [2] is “reduce the amount of cellular ROS”.
`O=C([O-])c1ccccc1.[Na+]` [sodium benzoate, reference compound]: in experiment [5] (1 mM, MK801 10 μM), the “protective effect in the presence of MK801” value is “blocked”. For the same molecule, in experiment [5] (post-treatment 1 mM, MK801 0 μM), the “cell survival with Aβ25-35 exposure” value is given as “elevate the cell survival”. Besides, the spare respiratory capacity result in the experiment with cortical neurons is “less effective than LiBen”. In experiment [3], the “number of GFAP positive cells after Aβ25-35 exposure” value is “did not influence”. Besides, the “ROS production induced by 3-NP” value in experiment [2] is on record as “reduce the amount of cellular ROS”.
